In publication PMC9851907, “A single 2′-O-methylation of ribosomal RNA gates assembly of a functional ribosome” (Nature Structural & Molecular Biology, 2022):

Target: T1, Nog2 (Nog2-3xFLAG) (Saccharomyces cerevisiae, UniProt P53742)
T1 construct: full-length, genomic C-terminal 3xFLAG-6xHis tag (kept); native anti-FLAG purification from yeast within pre-60S particle with unmodified G2922 (spb1-D52A cells)
Test: cryo-EM structure, […] A
Assay type: binding
Conditions: Mg2+; GTPase active site; nucleotide co-purified; pre-60S with unmethylated G2922; Table 1 lists only Mg2+ as ligand

Nc1nc2c(ncn2[C@@H]2O[C@H](COP(=O)(O)OP(=O)(O)O)[C@@H](O)[C@H]2O)c(=O)[nH]1 [GDP]
cryo-EM structure, 2.9 A: switch I and switch II (motifs G2 and G3) are apparently ordered around GDP
